We go through 19 compounds from patent US20230286948A1 (HUYABIO International, LLC, priority 2022, published 2023).

Usually IC50 stands for the concentration at which inhibition is half-maximal.

This test addresses MLL1-WDR5 protein-protein interaction (Homo sapiens (Human), UniProt P61964). Briefly: WDR5 TR-FRET assay (MLL1-WDR5 PPI inhibition). It is filed as binding. As to conditions: 5 nM WDR5 protein, 10 nM peptide, read-out: IC50 (nM), MLL1-WDR5 PPI inhibitory activity. As for the experimental part: WDR5 TR-FRET Assay Procedure: Stock compounds were transferred to the assay plate by Echo Liquid Handler. […] Stock compounds were incubated with WDR5 protein for 30 min at room temperature. Plates were covered, protected from light and incubated for 60 min at room temperature, after adding the peptide and Tb-Ab. EnVision Multimode Plate Reader (PerkinElmer) was used for the TR-FRET assay with excitation wavelength at 340 nm and emission wavelength at 495 and 520 nm. The ratio of the 520/495 wavelengths were used to assess the degree of the FRET signal. IC50 was calculated by fitting the inhibition data using XLfit software to sigmoidal dose-response model.
Background: TR-FRET usually uses a lanthanide donor and a delayed reading to cut background.
With `Cc1cc(C(F)(F)F)c(C(=O)Nc2cc(-n3cc(C(=O)NCCCN4CCOCC4)nn3)ccc2N2CCN(C)CC2)cn1` [Example 12, 6-methyl-N-(2-(4-methylpiperazin-1-yl)-5-(4-((3-morpholinopropyl)carbamoyl)-1H-1,2,3-triazol-1-yl)phenyl)-4-(trifluoromethyl)nicotinamide], the IC50 is over 10000 nM.
The same measure for `CN1CCN(c2ccc(-n3cc(C(=O)NCCCN4CCOCC4)nn3)cc2NC(=O)c2cnc(C#N)cc2C(F)(F)F)CC1` [Example 13, 6-cyano-N-[2-(4-methylpiperazin-1-yl)-5-[4-(3-morpholinopropylcarbamoyl)triazol-1-yl]phenyl]-4-(trifluoromethyl)pyridine-3-carboxamide]: over 10000 nM; for `CSc1cc(C(F)(F)F)c(C(=O)Nc2cc(-n3cc(C(=O)NCCCN4CCOCC4)nn3)ccc2N2CCN(C)CC2)cn1` [Example 14, N-[2-(4-methylpiperazin-1-yl)-5-[4-(3-morpholinopropylcarbamoyl)triazol-1-yl]phenyl]-6-methylsulfanyl-4-(trifluoromethyl)pyridine-3-carboxamide]: over 10000 nM; for `CN1CCN(c2ccc(-n3cc(C(=O)NCCCN4CCOCC4)nn3)cc2NC(=O)c2cnc(S(C)(=O)=O)cc2C(F)(F)F)CC1` [Example 15, N-[2-(4-methylpiperazin-1-yl)-5-[4-(3-morpholinopropylcarbamoyl)triazol-1-yl]phenyl]-6-methylsulfonyl-4-(trifluoromethyl)pyridine-3-carboxamide]: over 10000 nM.
`COc1cc(C(F)(F)F)c(C(=O)Nc2cc(-n3cc(C(=O)NCCCN4CCOCC4)nn3)ccc2N2CCN(C)CC2)cn1` [Example 16, 6-methoxy-N-(2-(4-methylpiperazin-1-yl)-5-(4-((3-morpholinopropyl)carbamoyl)-1H-1,2,3-triazol-1-yl)phenyl)-4-(trifluoromethyl)nicotinamide]: the IC50 is over 10000 nM.
Next, `CCOc1cc(C(F)(F)F)c(C(=O)Nc2cc(-n3cc(C(=O)NCCCN4CCOCC4)nn3)ccc2N2CCN(C)CC2)cn1` [Example 17, 6-ethoxy-N-(2-(4-methylpiperazin-1-yl)-5-(4-((3-morpholinopropyl)carbamoyl)-1H-1,2,3-triazol-1-yl)phenyl)-4-(trifluoromethyl)nicotinamide]: over 10000 nM; `CN1CCN(c2ccc(-n3cc(C(=O)NCCCN4CCOCC4)nn3)cc2NC(=O)c2cnc(N)cc2C(F)(F)F)CC1` [Example 18, 6-amino-N-(2-(4-methylpiperazin-1-yl)-5-(4-((3-morpholinopropyl)carbamoyl)-1H-1,2,3-triazol-1-yl)phenyl)-4-(trifluoromethyl)nicotinamide]: over 10000 nM; `CN1CCN(c2ccc(-n3cc(C(=O)NCCCN4CCOCC4)nn3)cc2NC(=O)c2cnc(Cl)cc2Cl)CC1` [Example 19, 4,6-dichloro-N-[2-(4-methylpiperazin-1-yl)-5-[4-(3-morpholinopropylcarbamoyl)triazol-1-yl]phenyl]pyridine-3-carboxamide]: over 10000 nM.
With `CN1CCN(c2ccc(-n3cc(C(=O)NCCCN4CCOCC4)nn3)cc2NC(=O)c2cnc(C(F)(F)F)cc2Cl)CC1` [Example 20, 4-chloro-N-(2-(4-methylpiperazin-1-yl)-5-(4-((3-morpholinopropyl)carbamoyl)-1H-1,2,3-triazol-1-yl)phenyl)-6-(trifluoromethyl)nicotinamide], the half-inhibitory concentration (IC50) was over 10000 nM.
The same measure for `Cc1c(Cl)ncc(C(=O)Nc2cc(-n3cc(C(=O)NCCCN4CCOCC4)nn3)ccc2N2CCN(C)CC2)c1Cl` [Example 21, 4,6-dichloro-5-methyl-N-(2-(4-methylpiperazin-1-yl)-5-(4-((3-morpholinopropyl)carbamoyl)-1H-1,2,3-triazol-1-yl)phenyl)nicotinamide]: 6570 nM; for `CN1CCN(c2ccc(-n3cc(C(=O)NCCCN4CCOCC4)nn3)cc2NC(=O)c2cnc(Cl)cc2N)CC1` [Example 22, 4-amino-6-chloro-N-(2-(4-methylpiperazin-1-yl)-5-(4-((3-morpholinopropyl)carbamoyl)-1H-1,2,3-triazol-1-yl)phenyl)nicotinamide]: over 10000 nM.
Next, `CN1CCN(c2ccc(-n3cc(C(=O)NCCCN4CCOCC4)nn3)cc2NC(=O)c2cnc(Cl)cc2N(C)C)CC1` [Example 23, 6-chloro-4-(dimethylamino)-N-[2-(4-methylpiperazin-1-yl)-5-[4-(3-morpholinopropylcarbamoyl)triazol-1-yl]phenyl]pyridine-3-carboxamide]: over 10000 nM; `Cc1cc(N)ncc1C(=O)Nc1cc(-n2cc(C(=O)NCCCN3CCOCC3)nn2)ccc1N1CCN(C)CC1` [Example 24, 6-amino-4-methyl-N-(2-(4-methylpiperazin-1-yl)-5-(4-((3-morpholinopropyl)carbamoyl)-1H-1,2,3-triazol-1-yl)phenyl)nicotinamide]: over 10000 nM; `Cc1cc(F)ncc1C(=O)Nc1cc(-n2cc(C(=O)NCCCN3CCOCC3)nn2)ccc1N1CCN(C)CC1` [Example 25, 6-fluoro-4-methyl-N-(2-(4-methylpiperazin-1-yl)-5-(4-((3-morpholinopropyl)carbamoyl)-1H-1,2,3-triazol-1-yl)phenyl)nicotinamide]: over 10000 nM.
The same measure for `Cc1ncc(C(=O)Nc2cc(-n3cc(C(=O)NCCCN4CCOCC4)nn3)ccc2N2CCN(C)CC2)c(C(F)(F)F)n1` [Example 26, 2-methyl-N-(2-(4-methylpiperazin-1-yl)-5-(4-((3-morpholinopropyl)carbamoyl)-1H-1,2,3-triazol-1-yl)phenyl)-4-(trifluoromethyl)pyrimidine-5-carboxamide]: over 10000 nM.
As for `CSc1ncc(C(=O)Nc2cc(-n3cc(C(=O)NCCCN4CCOCC4)nn3)ccc2N2CCN(C)CC2)c(C(F)(F)F)n1` [Example 27, N-(2-(4-methylpiperazin-1-yl)-5-(4-((3-morpholinopropyl)carbamoyl)-1H-1,2,3-triazol-1-yl)phenyl)-2-(methylthio)-4-(trifluoromethyl)pyrimidine-5-carboxamide], the half-inhibitory concentration (IC50) is over 10000 nM.
Next, `CN1CCN(c2ccc(-n3cc(C(=O)NCCCN4CCOCC4)nn3)cc2NC(=O)c2cnc([S+](C)[O-])nc2C(F)(F)F)CC1` (stereo not shown) [Example 28, N-(2-(4-methylpiperazin-1-yl)-5-(4-((3-morpholinopropyl)carbamoyl)-1H-1,2,3-triazol-1-yl)phenyl)-2-(methylsulfinyl)-4-(trifluoromethyl)pyrimidine-5-carboxamide]: over 10000 nM; `CCOc1ncc(C(=O)Nc2cc(-n3cc(C(=O)NCCCN4CCOCC4)nn3)ccc2N2CCN(C)CC2)c(C(F)(F)F)n1` [Example 29, 2-ethoxy-N-(2-(4-methylpiperazin-1-yl)-5-(4-((3-morpholinopropyl)carbamoyl)-1H-1,2,3-triazol-1-yl)phenyl)-4-(trifluoromethyl)pyrimidine-5-carboxamide]: over 10000 nM; `COc1nc(SC)ncc1C(=O)Nc1cc(-n2cc(C(=O)NCCCN3CCOCC3)nn2)ccc1N1CCN(C)CC1` [Example 30, 4-methoxy-N-(2-(4-methylpiperazin-1-yl)-5-(4-((3-morpholinopropyl)carbamoyl)-1H-1,2,3-triazol-1-yl)phenyl)-2-(methylthio)pyrimidine-5-carboxamide]: over 10000 nM.
